Here are results for 4 compounds from patent publication US7241775B2, “Composition, process of making, and medical use of substituted 4-phenyltetrahydroisoquinolines” (Sanofi-Aventis Deutschland GmbH, priority 2003, dated 2007).

The term IC50 denotes the concentration at which inhibition is half-maximal. A higher IC50 goes with lower potency.

Structures can show the parent of a compound that is named as a salt.

The experiment deals with T1, NHE3 (Homo sapiens, UniProt P48764).
T1 sequence (P48764 26-834): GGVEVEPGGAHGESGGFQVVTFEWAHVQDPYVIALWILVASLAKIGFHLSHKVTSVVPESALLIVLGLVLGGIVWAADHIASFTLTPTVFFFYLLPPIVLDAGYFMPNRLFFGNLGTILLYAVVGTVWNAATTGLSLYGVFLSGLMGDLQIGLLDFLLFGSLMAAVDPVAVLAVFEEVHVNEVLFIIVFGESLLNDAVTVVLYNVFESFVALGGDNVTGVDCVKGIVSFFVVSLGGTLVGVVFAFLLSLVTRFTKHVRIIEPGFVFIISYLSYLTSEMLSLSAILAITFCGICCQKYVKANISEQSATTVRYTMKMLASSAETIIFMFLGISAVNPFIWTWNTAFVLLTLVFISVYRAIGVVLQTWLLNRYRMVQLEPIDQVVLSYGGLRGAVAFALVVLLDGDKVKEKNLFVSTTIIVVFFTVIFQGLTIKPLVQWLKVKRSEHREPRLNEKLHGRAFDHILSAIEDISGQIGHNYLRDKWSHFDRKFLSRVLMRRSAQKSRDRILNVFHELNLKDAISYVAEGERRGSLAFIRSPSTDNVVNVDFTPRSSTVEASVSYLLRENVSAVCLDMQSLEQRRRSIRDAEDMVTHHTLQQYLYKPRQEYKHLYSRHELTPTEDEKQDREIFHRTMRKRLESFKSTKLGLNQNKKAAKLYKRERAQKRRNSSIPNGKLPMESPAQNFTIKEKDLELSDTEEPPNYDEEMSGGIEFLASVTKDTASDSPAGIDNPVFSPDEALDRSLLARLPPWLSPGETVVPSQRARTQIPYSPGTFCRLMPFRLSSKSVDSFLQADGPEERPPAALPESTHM
Briefly: Recovery of intracellular pH (pHi) after acidification, BCECF fluorescence, NHE3. Type of experiment: cell-based. The conditions noted are these: inhibition of pH recovery after intracellular acidification; rate registered at three minutes for NHE3; bicarbonate-free. As to the method:
Pharmacological Data: Test Description:
This test determines the recovery of the intracellular pH (pHi) after acidification, and this recovery occurs in the case of functional NHE even under bicarbonate-free conditions. To this end, the pHi was determined using the pH-sensitive fluorescent dye BCECF (Calbiochem, the BCECF-AM precursor was used). The cells were initially loaded with BCECF. The BCECF fluorescence was determined in a Ratio Fluorescence Spectrometer (Photon Technology International, South Brunswick, N.J., USA) at excitation wavelengths of 505 and 440 nm and an emission wavelength of 535 nm and converted to the pHi by means of calibration curves. The cells had already been incubated in NH4Cl buffer (pH 7.4) in the course of the BCECF loading (NH4Cl buffer: 115 mM NaCl, 20 mM NH4Cl, 5 mM KCl, 1 mM CaCl2, 1 mM MgSO4, 20 mM Hepes, 5 mM glucose, 1 mg/ml BSA; a pH of 7.4 was established using 1 M NaOH). The intracellular acidification was induced by adding 975 μl of an NH4Cl-free buffer (see below) to 25 μl aliquots of the cells incubated in NH4Cl buffer. The subsequent rate of the pH recovery was registered at 2 minutes for NHE1, at 5 minutes for NHE2 and at three minutes for NHE3. For the calculation of the inhibitory potency of the tested substances, the cells were initially investigated in buffers in which complete or absolutely no pH recovery took place. For complete pH recovery (100%), the cells were incubated in Na^+-containing buffer (133.8 mM NaCl, 4.7 mM KCl, 1.25 mM CaCl2, 1.25 mM MgCl2, 0.97 mM Na2HPO4, 0.23 mM NaH2PO4, 5 mM Hepes, 5 mM glucose, a pH of 7.0 was established using 1 M NaOH). For the determination of the 0% value, the cells were incubated in an Na^+-free buffer (133.8 mM choline chloride, 4.7 mM KCl, 1.25 mM CaCl2, 1.25 mM MgCl2, 0.97 mM K2HPO4, 0.23 mM KH2PO4, 5 mM Hepes, 5 mM glucose, a pH of 7.0 was established using 1 M NaOH). The substances to be tested were made up in the Na^+-containing buffer. The recovery of the intracellular pH at each tested concentration of a substance was expressed in percent of the maximum recovery. The percentages of the pH recovery were used to calculate the IC50 value of the particular substance for the individual NHE subtypes by means of the program Sigma-Plot.
`CN1Cc2c(Cl)cc(Cl)cc2C(c2ccc(NC(=O)[C@@H](N)CCCNC(=N)N)cc2)C1` (stereo partly drawn) [Example 31, N-[4-(6,8-dichloro-2-methyl-1,2,3,4-tetrahydroisoquinolin-4-yl)phenyl]-(S)-2-amino-5-guanidinopentanamide trifluoroacetate] displayed an IC50 of 0.0291 µM.
The figure for `CN1Cc2c(Cl)cc(Cl)cc2C(c2cccc(C(=O)N[C@@H](CO)C(=O)O)c2)C1` (stereo partly drawn) [Example 16, (S)-2-[3-(6,8-dichloro-2-methyl-1,2,3,4-tetrahydroisoquinolin-4-yl)benzoylamino]-3-hydroxypropionic acid hydrochloride] is 0.159 µM.
The figure for `CN1Cc2c(Cl)cc(Cl)cc2C(c2cccc(NC(=O)[C@H](O)[C@@H](O)[C@H](O)[C@H](O)CO)c2)C1` (stereo partly drawn) [Example 2, N-[3-(6,8-dichloro-2-methyl-1,2,3,4-tetrahydroisoquinolin-4-yl)phenyl]-(2R,3S,4R,5R)-2,3,4,5,6-pentahydroxyhexanamide] is 0.0036 µM.
The figure for `CN1Cc2c(Cl)cc(Cl)cc2C(c2cccc(NC(=O)N[C@@H](CC(N)=O)C(=O)O)c2)C1` (stereo partly drawn) [Example 13, {N-[3-(6,8-dichloro-2-methyl-1,2,3,4-tetrahydroisoquinolin-4-yl)phenyl]-N′-(1-carboxy-4-aminocarboxy-2S-butyl)}urea hydrochloride] is 0.0176 µM.
